# Data published in patent US6413956B1, “Substituted 4-oxo-quinoline-3-carboxamides” (Neurogen Corporation, priority 1999, dated 2002).
row,melting point,SMILES
1,203 to 208 °C,Cl.O=C(NCc1cccc(CN2CCOCC2)c1)c1c[nH]c2ccccc2c1=O
2,177 to 180 °C,Cl.O=C(NCc1ccc(CN2CCOCC2)cc1)c1c[nH]c2ccccc2c1=O
3,252 °C (dec.),CCNCc1ccc(CNC(=O)c2c[nH]c3ccccc3c2=O)cc1.Cl
4,235 to 237 °C,Cl.O=C(NCc1ccccc1)c1c[nH]c2c(F)cccc2c1=O
5,173 °C,"O=C(NCc1ccccc1)c1c[nH]c2ccccc2c1=O [compound 5, N-Benzyl 4-oxo-1,4-dihydro-quinoline-3-carboxamide]"
6,213 to 215 °C,"O=C(NCc1ccc(F)cc1)c1c[nH]c2ccccc2c1=O [compound 8, N-(4-Fluorobenzyl) 4-oxo-1,4-dihydro-quinoline-3-carboxamide]"
7,193 to 195 °C,"O=C(NCc1ccco1)c1c[nH]c2ccccc2c1=O [compound 9, N-[(2-Furanyl)methyl] 4-oxo-1,4-dihydro-quinoline-3-carboxamide]"
8,207 °C,"O=C(NCc1ccc2c(c1)OCO2)c1c[nH]c2ccccc2c1=O [compound 11, N-Piperonyl 4-oxo-1,4-dihydro-quinoline-3-carboxamide]"
9,211 to 212 °C,"COc1ccc(CNC(=O)c2c[nH]c3ccccc3c2=O)cc1OC [compound 12, N-(3,4-Dimethoxybenzyl) 4-oxo-1,4-dihydro-quinoline-3-carboxamide]"
10,235 to 240 °C,"O=C(NCc1cccs1)c1c[nH]c2ccccc2c1=O [compound 13, N-[(2-Thienyl)methyl] 4-oxo-1,4-dihydro-quinoline-3-carboxamide]"
11,203 to 205 °C,"CCOc1ccc(CNC(=O)c2c[nH]c3ccccc3c2=O)cc1 [compound 16, N-(4-Ethoxybenzyl) 4-oxo-1,4-dihydro-quinoline-3-carboxamide]"
12,148 °C (dec.),"CCNCc1cccc(CNC(=O)c2c[nH]c3ccc(Cl)cc3c2=O)c1 [compound 28, N-[3-(Ethylaminomethyl)benzyl] 6-chloro-4-oxo-1,4-dihydro-quinoline-3-carboxamide]"
13,195 to 196 °C,"COCc1ccc2[nH]cc(C(=O)NCc3ccccc3)c(=O)c2c1 [compound 31, N-Benzyl 6-methoxymethyl-4-oxo-1,4-dihydro-quinoline-3-carboxamide]"

# More lines, now with the values behind:
row,SMILES,melting point
1,CNC(C)c1cccc(CNC(=O)c2c[nH]c3ccc(Cl)cc3c2=O)c1.Cl (stereo not drawn),184 °C (dec.)
2,Cc1nc(Cc2ccc(CNC(=O)c3c[nH]c4ccc(F)cc4c3=O)cc2)c[nH]1.Cl,120 to 122 °C
3,CN(C)Cc1ccc(CNC(=O)c2c[nH]c3ccc(Cl)cc3c2=O)cc1.Cl,198 °C (dec.)
4,CN(C)Cc1cccc(CNC(=O)c2c[nH]c3ccc(Cl)cc3c2=O)c1.Cl,178 °C (dec.)
5,CCOc1ccc2[nH]cc(C(=O)NCc3ccc(CN(C)C)cc3)c(=O)c2c1.Cl,222 to 225 °C (dec.)
6,CCCCNC(=O)c1c[nH]c2c(F)cccc2c1=O.Cl,205 to 207 °C
7,"O=C(NCC1CCCO1)c1c[nH]c2ccccc2c1=O (stereo not drawn) [compound 1, N-tetrahydrofurfuryl 4-oxo-1,4-dihydro-quinoline-3-carboxamide]",205 to 209 °C
8,"CC(C)CCNC(=O)c1c[nH]c2ccccc2c1=O [compound 4, N-Isoamyl 4-oxo-1,4-dihydro-quinoline-3-carboxamide]",180 to 181 °C
9,"CCOCCCNC(=O)c1c[nH]c2ccccc2c1=O [compound 17, N-(3-Ethoxypropyl) 4-oxo-1,4-dihydro-quinoline-3-carboxamide]",141 to 142 °C
10,"COCc1ccc2[nH]cc(C(=O)NCc3cccs3)c(=O)c2c1 [compound 32, N-[(2-Thienyl)methyl] 6-methoxymethyl-4-oxo-1,4-dihydro-quinoline-3-carboxamide]",225 to 226 °C
11,"CCOCCCNC(=O)c1c[nH]c2ccc(COC)cc2c1=O [compound 33, N-[(3-Ethoxy)propyl] 6-methoxymethyl-4-oxo-1,4-dihydro-quinoline-3-carboxamide]",95 to 97 °C
